Laboratory results taken from PMC5862592, “CDK8/19 inhibition induces premature G1/S transition and ATR-dependent cell death in prostate cancer cells” (Oncotarget, 2018).
Read-outs that look alike come from different tables or passages of the source.

Columns and labels:
Assay in all cases: biochemical
Design in all cases: KINOMEscan active site-directed competition binding assay (DiscoveRx), 456 kinases, per cent of control at 300 nM
Settings in all cases: read-out: Percent of Control (%)
HIPK4 = HIPK4 (Homo sapiens, UniProt Q8NE63)
Method in brief: (§1)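 Compounds at 300 nmol/L screened against 456 kinases by KINOMEscan, a competition binding assay measuring displacement at the kinase active site.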

ACVRL1 = ACVRL1 (Homo sapiens, UniProt P37023)
Method in brief: as §1

PKN2 = PKN2 (Homo sapiens, UniProt Q16513)
Sequence of PKN2 (Q16513 whole entry): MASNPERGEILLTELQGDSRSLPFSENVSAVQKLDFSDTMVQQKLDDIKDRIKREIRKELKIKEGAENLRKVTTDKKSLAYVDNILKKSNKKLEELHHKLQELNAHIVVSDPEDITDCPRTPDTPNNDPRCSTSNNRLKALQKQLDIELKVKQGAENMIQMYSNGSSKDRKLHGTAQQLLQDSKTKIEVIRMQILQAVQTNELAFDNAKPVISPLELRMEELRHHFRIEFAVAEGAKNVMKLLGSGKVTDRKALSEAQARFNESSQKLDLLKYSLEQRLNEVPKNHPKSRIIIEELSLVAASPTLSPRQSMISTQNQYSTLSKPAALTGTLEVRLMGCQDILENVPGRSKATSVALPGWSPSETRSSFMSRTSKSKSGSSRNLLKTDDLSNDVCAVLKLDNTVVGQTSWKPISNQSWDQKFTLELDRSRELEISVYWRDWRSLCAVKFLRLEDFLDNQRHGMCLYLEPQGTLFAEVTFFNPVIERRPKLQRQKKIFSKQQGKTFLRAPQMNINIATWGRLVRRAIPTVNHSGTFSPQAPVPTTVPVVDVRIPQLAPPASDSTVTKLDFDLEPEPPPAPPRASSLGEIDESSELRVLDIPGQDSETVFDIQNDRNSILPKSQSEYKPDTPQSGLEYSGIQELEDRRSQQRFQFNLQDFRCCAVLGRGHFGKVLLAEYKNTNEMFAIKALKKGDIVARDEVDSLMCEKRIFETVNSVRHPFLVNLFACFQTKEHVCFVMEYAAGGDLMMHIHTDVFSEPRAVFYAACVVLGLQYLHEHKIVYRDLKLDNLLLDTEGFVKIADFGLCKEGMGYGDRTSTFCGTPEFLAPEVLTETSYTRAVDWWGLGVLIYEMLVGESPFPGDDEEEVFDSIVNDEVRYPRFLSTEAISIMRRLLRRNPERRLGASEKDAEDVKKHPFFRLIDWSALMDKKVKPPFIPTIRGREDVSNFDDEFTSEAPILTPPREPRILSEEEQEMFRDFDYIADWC
Method in brief: as §1

CDC2L2 = molecular target: T1, CDC2L2 (Homo sapiens, UniProt Q9UQ88)
T1 construct: gene CDK11A
Method in brief: as §1

NEK6 = NEK6 (Homo sapiens, UniProt Q9HC98)
Sequence of NEK6 (Q9HC98 whole entry): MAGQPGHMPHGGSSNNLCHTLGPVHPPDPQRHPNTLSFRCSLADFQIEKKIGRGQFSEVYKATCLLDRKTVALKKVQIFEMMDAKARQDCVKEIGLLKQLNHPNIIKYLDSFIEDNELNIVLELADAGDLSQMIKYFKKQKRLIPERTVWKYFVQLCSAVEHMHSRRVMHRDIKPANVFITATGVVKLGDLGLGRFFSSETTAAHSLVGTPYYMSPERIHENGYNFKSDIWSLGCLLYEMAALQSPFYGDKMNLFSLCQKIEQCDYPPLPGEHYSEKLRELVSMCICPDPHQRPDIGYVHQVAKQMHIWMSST
Method in brief: as §1

TYRO3 = TYRO3 (Homo sapiens, UniProt Q06418)
Method in brief: as §1

HIPK3 = HIPK3 (Homo sapiens, UniProt Q9H422)
Sequence of HIPK3 (Q9H422 whole entry): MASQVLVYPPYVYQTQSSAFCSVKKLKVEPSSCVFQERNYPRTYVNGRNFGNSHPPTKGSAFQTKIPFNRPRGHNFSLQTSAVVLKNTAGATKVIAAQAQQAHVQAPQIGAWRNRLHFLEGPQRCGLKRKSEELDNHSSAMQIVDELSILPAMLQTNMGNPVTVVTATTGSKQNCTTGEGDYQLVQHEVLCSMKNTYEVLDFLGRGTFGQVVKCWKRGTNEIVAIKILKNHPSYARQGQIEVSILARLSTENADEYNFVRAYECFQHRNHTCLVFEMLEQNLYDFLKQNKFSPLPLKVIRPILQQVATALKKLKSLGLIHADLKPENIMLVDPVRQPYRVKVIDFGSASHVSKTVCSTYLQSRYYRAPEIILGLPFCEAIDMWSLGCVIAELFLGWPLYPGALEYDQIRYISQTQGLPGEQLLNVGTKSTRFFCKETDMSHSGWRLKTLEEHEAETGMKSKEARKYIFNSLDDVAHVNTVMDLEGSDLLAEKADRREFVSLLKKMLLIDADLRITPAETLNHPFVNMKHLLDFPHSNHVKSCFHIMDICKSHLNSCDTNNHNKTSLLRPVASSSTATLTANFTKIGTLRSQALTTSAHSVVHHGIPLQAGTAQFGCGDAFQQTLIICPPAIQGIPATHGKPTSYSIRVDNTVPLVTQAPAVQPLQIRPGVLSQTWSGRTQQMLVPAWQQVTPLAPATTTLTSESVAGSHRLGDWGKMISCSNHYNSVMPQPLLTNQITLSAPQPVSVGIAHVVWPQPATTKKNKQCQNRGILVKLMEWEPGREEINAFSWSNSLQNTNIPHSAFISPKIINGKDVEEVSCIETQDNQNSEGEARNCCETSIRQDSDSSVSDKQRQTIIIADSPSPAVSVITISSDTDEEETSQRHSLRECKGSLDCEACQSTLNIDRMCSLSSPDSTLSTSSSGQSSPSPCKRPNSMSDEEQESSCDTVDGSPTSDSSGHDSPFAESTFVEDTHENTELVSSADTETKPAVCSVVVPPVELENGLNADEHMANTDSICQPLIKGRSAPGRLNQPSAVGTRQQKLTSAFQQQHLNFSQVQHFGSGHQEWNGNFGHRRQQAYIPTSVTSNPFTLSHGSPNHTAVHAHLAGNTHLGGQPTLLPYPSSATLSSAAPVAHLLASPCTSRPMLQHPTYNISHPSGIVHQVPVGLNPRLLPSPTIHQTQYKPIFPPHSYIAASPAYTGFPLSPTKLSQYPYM
Method in brief: as §1

CAMK2G = CAMK2G (Homo sapiens, UniProt Q13555)
Sequence of CAMK2G (Q13555 whole entry): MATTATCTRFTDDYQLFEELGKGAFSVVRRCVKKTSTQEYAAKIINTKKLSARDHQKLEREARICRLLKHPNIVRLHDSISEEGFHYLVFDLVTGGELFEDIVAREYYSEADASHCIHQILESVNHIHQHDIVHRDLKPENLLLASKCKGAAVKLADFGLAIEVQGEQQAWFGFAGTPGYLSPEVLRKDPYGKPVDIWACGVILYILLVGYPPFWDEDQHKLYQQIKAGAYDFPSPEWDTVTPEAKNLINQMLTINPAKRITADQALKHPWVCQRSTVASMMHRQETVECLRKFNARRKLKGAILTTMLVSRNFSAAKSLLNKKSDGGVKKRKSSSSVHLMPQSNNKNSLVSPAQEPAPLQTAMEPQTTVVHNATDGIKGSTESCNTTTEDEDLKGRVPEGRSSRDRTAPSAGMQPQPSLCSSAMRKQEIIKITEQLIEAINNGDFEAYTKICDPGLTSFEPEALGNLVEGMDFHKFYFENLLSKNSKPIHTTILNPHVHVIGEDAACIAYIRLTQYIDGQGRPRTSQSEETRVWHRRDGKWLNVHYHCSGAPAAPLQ
Method in brief: as §1

ERK4 = molecular target: T2, ERK4 (Homo sapiens, UniProt P31152)
T2 construct: gene MAPK4
Method in brief: as §1

FGFR1 = FGFR1 (Homo sapiens, UniProt P11362)
Method in brief: as §1

PIK3CG = PIK3CG (Homo sapiens, UniProt P48736)
Method in brief: as §1

[1] = molecular target: T3, TYK2(JH2domain-pseudokinase) (Homo sapiens, UniProt P29597)
T3 construct: JH2domain-pseudokinase
Method in brief: as §1

TSSK1B = TSSK1B (Homo sapiens, UniProt Q9BXA7)
Sequence of TSSK1B (Q9BXA7 whole entry): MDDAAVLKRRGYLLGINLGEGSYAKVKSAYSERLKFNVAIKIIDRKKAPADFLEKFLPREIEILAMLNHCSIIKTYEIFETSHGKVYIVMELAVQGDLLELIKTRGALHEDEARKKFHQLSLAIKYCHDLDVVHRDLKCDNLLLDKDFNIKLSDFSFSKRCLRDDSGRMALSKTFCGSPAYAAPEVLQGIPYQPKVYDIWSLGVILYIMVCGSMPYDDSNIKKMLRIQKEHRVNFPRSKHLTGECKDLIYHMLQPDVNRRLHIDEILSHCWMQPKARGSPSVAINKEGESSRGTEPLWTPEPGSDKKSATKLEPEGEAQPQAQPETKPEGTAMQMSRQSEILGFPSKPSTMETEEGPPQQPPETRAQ
Method in brief: as §1

MST1 = molecular target: T4, MST1 (Homo sapiens, UniProt Q13043)
T4 construct: gene STK4
Method in brief: as §1

MAST1 = MAST1 (Homo sapiens, UniProt Q9Y2H9)
Method in brief: as §1

[2] = molecular target: T5, ABL1(F317I)-nonphosphorylated (Homo sapiens, UniProt P00519, F317I)
T5 construct: nonphosphorylated
T5 sequence (P00519 whole entry F317I): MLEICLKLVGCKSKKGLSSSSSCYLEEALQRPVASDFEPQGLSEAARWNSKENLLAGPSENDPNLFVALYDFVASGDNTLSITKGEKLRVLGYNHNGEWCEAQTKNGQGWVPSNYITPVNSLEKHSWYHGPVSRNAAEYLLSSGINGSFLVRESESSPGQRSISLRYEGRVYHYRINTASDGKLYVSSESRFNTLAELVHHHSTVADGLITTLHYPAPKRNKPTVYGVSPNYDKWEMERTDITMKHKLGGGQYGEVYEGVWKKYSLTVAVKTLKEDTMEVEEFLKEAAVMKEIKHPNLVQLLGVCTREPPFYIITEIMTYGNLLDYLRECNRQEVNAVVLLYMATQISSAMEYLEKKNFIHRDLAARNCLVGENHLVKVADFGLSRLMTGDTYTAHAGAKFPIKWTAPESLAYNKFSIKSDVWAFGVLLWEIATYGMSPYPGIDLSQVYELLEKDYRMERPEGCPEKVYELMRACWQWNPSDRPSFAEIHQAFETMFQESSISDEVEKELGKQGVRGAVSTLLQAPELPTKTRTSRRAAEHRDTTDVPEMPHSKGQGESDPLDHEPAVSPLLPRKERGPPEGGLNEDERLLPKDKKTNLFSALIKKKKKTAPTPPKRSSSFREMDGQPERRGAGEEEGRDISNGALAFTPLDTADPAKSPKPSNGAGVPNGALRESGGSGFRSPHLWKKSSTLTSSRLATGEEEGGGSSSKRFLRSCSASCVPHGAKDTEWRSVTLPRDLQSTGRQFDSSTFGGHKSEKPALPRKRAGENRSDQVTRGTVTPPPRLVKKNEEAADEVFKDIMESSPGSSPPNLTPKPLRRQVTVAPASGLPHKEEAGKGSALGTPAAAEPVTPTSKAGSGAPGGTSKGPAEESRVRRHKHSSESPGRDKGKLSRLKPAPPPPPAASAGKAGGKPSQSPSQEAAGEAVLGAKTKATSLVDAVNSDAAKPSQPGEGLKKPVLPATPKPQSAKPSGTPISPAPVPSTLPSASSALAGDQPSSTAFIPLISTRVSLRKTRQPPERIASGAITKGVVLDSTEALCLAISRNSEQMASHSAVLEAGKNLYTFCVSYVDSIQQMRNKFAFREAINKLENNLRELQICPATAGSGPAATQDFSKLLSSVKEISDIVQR
Method in brief: as §1

BLK = BLK (Homo sapiens, UniProt P51451)
Method in brief: as §1

BMPR1B = BMPR1B (Homo sapiens, UniProt O00238)
Method in brief: as §1

TAK1 = molecular target: T6, TAK1 (Homo sapiens, UniProt O43318)
T6 construct: gene MAP3K7
Method in brief: as §1

YSK1 = molecular target: T7, YSK1 (Homo sapiens, UniProt O00506)
T7 construct: gene STK25
T7 sequence (O00506 whole entry): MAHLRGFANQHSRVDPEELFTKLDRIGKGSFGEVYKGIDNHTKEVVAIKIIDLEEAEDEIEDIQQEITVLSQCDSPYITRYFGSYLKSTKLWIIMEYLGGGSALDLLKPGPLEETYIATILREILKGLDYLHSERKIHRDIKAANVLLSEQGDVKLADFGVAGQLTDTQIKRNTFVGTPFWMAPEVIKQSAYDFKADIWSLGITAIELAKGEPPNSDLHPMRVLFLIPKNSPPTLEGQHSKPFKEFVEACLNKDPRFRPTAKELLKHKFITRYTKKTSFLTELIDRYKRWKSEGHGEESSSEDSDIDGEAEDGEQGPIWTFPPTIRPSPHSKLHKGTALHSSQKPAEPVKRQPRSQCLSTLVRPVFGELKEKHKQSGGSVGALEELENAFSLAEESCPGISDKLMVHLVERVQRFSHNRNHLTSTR
Method in brief: as §1

EPHA3 = EPHA3 (Homo sapiens, UniProt P29320)
Method in brief: as §1

PIM1 = PIM1 (Homo sapiens, UniProt P11309)
Method in brief: as §1

## O=C(/C=C/c1cnccc1-c1ccc(F)cc1)Nc1ccc(CCc2nnco2)cc1 [T-418, (2E)-3-(4-(4-fluorophenyl)pyridin-3-yl)-N-(4-(2-(1,3,4-oxadiazol-2-yl)ethyl)phenyl)acrylamide]
HIPK4; sheet T-418
  remaining binding at 0.3 µM: 84%
ACVRL1; sheet T-418
  remaining binding at 0.3 µM: 77%
PKN2; sheet T-418
  remaining binding at 0.3 µM: 95%
CDC2L2; sheet T-418
  remaining binding at 0.3 µM: 100%
NEK6; sheet T-418
  remaining binding at 0.3 µM: 98%
TYRO3; sheet T-418
  remaining binding at 0.3 µM: 82%
HIPK3; sheet T-418
  remaining binding at 0.3 µM: 64%
CAMK2G; sheet T-418
  remaining binding at 0.3 µM: 94%
ERK4; sheet T-418
  remaining binding at 0.3 µM: 100%
FGFR1; sheet T-418
  remaining binding at 0.3 µM: 100%
PIK3CG; sheet T-418
  remaining binding at 0.3 µM: 100%
[1]; sheet T-418
  remaining binding at 0.3 µM: 100%
TSSK1B; sheet T-418
  remaining binding at 0.3 µM: 100%
MST1; sheet T-418
  remaining binding at 0.3 µM: 89%
MAST1; sheet T-418
  remaining binding at 0.3 µM: 100%
[2]; sheet T-418
  remaining binding at 0.3 µM: 100%
BLK; sheet T-418
  remaining binding at 0.3 µM: 100%
BMPR1B; sheet T-418
  remaining binding at 0.3 µM: 100%
TAK1; sheet T-418
  remaining binding at 0.3 µM: 100%
YSK1; sheet T-418
  remaining binding at 0.3 µM: 97%
EPHA3; sheet T-418
  remaining binding at 0.3 µM: 100%
PIM1; sheet T-418
  remaining binding at 0.3 µM: 75%

## Cc1ncccc1Oc1sc(C(N)=O)c2c1-c1c(cnn1C)CC2 [T-474, 1-methyl-8-((2-methylpyridin-3-yl)oxy)-4,5-dihydro-1H-thieno[3,4-g]indazole-6-carboxamide]
HIPK4
  remaining binding at 0.3 µM: 68%
ACVRL1
  remaining binding at 0.3 µM: 87%
PKN2
  remaining binding at 0.3 µM: 100%
CDC2L2
  remaining binding at 0.3 µM: 98%
NEK6
  remaining binding at 0.3 µM: 100%
TYRO3
  remaining binding at 0.3 µM: 95%
HIPK3
  remaining binding at 0.3 µM: 79%
CAMK2G
  remaining binding at 0.3 µM: 97%
ERK4
  remaining binding at 0.3 µM: 100%
FGFR1
  remaining binding at 0.3 µM: 95%
PIK3CG
  remaining binding at 0.3 µM: 88%
[1]
  remaining binding at 0.3 µM: 100%
TSSK1B
  remaining binding at 0.3 µM: 100%
MST1
  remaining binding at 0.3 µM: 100%
MAST1
  remaining binding at 0.3 µM: 100%
[2]
  remaining binding at 0.3 µM: 100%
BLK
  remaining binding at 0.3 µM: 100%
BMPR1B
  remaining binding at 0.3 µM: 100%
TAK1
  remaining binding at 0.3 µM: 100%
YSK1
  remaining binding at 0.3 µM: 94%
EPHA3
  remaining binding at 0.3 µM: 100%
PIM1
  remaining binding at 0.3 µM: 92%
